Test results taken from patent US11554124B2, “Hematopoiesis-enhancing agent” (priority 2018, dated 2023).

Legend:
[1] = tested on: SAM present in erythroblasts; test: Abundance of SAM in bone marrow erythroblasts of treated mice (mass spectrometry); type: in vivo, mouse; settings: CLEU 50 mg/body i.p., bone marrow subset II, Day 2, vs PBS
Procedure: Wild-type mice with a genetic background of C57BL/6J were purchased from Charles River Laboratories, Inc. Mice at 8 to 14 weeks of age were used for analysis. For CLEU treatment (50 mg/body), a solution of cycloleucine (CLEU) was prepared by diluting cycloleucine (CLEU) (Sigma) in PBS (50 mg/ml), and 1 ml of the CLEU solution was administered intraperitoneally. For AKBA treatment (2 mg/body), 2 mg AKBA (Enzo Life Sciences)/20% DMSO/1 mL PBS solution was administered intraperitoneally. Vehicle without AKBA was used as a control. For measuring complete blood count of peripheral blood, peripheral blood was collected from facial veins and counted by use of an automated animal blood cell counter (microsemi LC-662). All of the experiments conducted in this study were approved by the Animal Experiment Committee of the Environmental Safety Committee of Tohoku University. BM cells and spleen cells were harvested in a conventional manner. Cells were stained with combinations of antibodies specific to erythroblasts and mature cells, to thereby identify them. The cells were visualized with antibody and streptavidin-peridinin chlorophyll protein-cyanin 5.5. […] Flow cytometric analysis and cell sorting were performed according to the manufacturer's protocol using FACS AriaII (BD), and then the obtained data were analyzed using FlowJo software (TreeStar). […]

[2] = tested on: human cord blood CD34+ cells; test: In vitro erythroid differentiation of human CD34+ umbilical cord blood cells; type: cell-based; settings: CLEU 2.5 mg/ml, differentiation medium 7 days
Procedure: Human CD34^+ umbilical cord blood cells were obtained from the Kanto Koshinetsu Block Blood Center (Tokyo, Japan). The use of cord blood samples for research purposes was approved by the Tohoku University Ethics Committee. The technical details of this method have been described previously. Briefly, CD34^+ umbilical cord blood cells were cultured in growth medium for 5 days, and subsequently, the cells (1×10^5/ml) were cultured in differentiation medium for 7 days. For treatment with CLEU, the concentration thereof was 2.5 mg/ml. As the growth medium, StemMACS HSC Expansion Media XF, human (MACS), supplemented with StemMACS HSC Expansion Cocktail, human (MACS) was used. As the differentiation medium, StemSpan SFEM (STEMCELL) supplemented with hSCF (100 ng/ml; Peprotech), hFLT3-L (33.3 ng/ml; Peprotech), hIL3 (13.3 ng/ml; Peprotech), hBMP4 (13.3 ng/ml; Peprotech), hEPO (2.67 IU/ml; Kyowa Kirin Co., Ltd.), and hydrocortisone (1 μM; Sigma) was used.
Finally, the effect of CLEU on in vitro erythroid cell differentiation conditions of human cord blood CD34^+ cells was investigated.

[3] = tested on: bone marrow erythroblasts; test: Flow cytometry of bone marrow cells / erythroblast subsets (Ter119/CD71 double staining) of treated mice; type: in vivo, mouse; settings: CLEU 50 mg/body i.p.
Procedure: Wild-type mice with a genetic background of C57BL/6J were purchased from Charles River Laboratories, Inc. Mice at 8 to 14 weeks of age were used for analysis. For CLEU treatment (50 mg/body), a solution of cycloleucine (CLEU) was prepared by diluting cycloleucine (CLEU) (Sigma) in PBS (50 mg/ml), and 1 ml of the CLEU solution was administered intraperitoneally. For AKBA treatment (2 mg/body), 2 mg AKBA (Enzo Life Sciences)/20% DMSO/1 mL PBS solution was administered intraperitoneally. Vehicle without AKBA was used as a control. For measuring complete blood count of peripheral blood, peripheral blood was collected from facial veins and counted by use of an automated animal blood cell counter (microsemi LC-662). All of the experiments conducted in this study were approved by the Animal Experiment Committee of the Environmental Safety Committee of Tohoku University.
BM cells and spleen cells were harvested in a conventional manner. Cells were stained with combinations of antibodies specific to erythroblasts and mature cells, to thereby identify them. The cells were visualized with antibody and streptavidin-peridinin chlorophyll protein-cyanin 5.5. The antibodies used in this study were as follows: anti-CD3e (145-2C11), anti-CD4 (GK1.5 or RM4.5), anti-CD8a (53-6.7), anti-Gr-1 (RB6-8C5), anti-B220 (RA3-6B2), anti-Ter-119 (TER-119), anti-CD71 (R17217 or C2). Cells were stained with […] (Sigma), and dead cells were excluded from analysis. Flow cytometric analysis and cell sorting were performed according to the manufacturer's protocol using FACS AriaII (BD), and then the obtained data were analyzed using FlowJo software (TreeStar).
Additionally, MAT inhibitor PF9366 (PF) was administered to mice and the effect thereof was investigated. Vehicle (DMSO) (control (Ctrl)) or 10 mM PF9366 (prepared at a concentration of 40 μl/40 ml water) was provided in a drinking bottle (0 h). In addition, 80 μl of vehicle (DMSO) or 80 μl of 10 mM PF9366 dissolved in 1 ml PBS was also administered intraperitoneally at 0 h and 24 h. Analysis was carried out at Day 2 (48 h).
MAT inhibitor 3-acetyl-11-keto-β-boswellic acid (AKBA; 2 mg/body) was intraperitoneally administered to mice at 0 and 24 hours, and analyzed after 48 hours.

SMILES: NC1(C(=O)O)CCCC1 [CLEU, cycloleucine]
- abundance of SAM present in erythroblasts [1]: reduce the abundance of SAM
- erythroid differentiation and maturation of human cord blood CD34+ cells [2]: induce not only erythroid differentiation but also maturation
- subset from which the increase of erythroblasts was initiated ([3]; Day 2, Ter119/CD71 double staining): initiated from subset II
- maturation of erythroblasts ([3]; Day 2, Ter119/CD71 double staining, vs PBS): significantly up-regulated
- erythroid cells in BM ([3]; Day 2, flow cytometry, vs PBS): considerable increase
- BM cell counts ([3]; femur and tibiae, Day 2, vs PBS): significantly increased
